The values that follow come from patent US9650389B2, “8-oxoprotoberberine derivative or pharmaceutically acceptable salt thereof, preparation method therefor and pharmaceutical composition for preventing or treating diseases associated with activity of NFAT5, containing same as active ingredient” (Korea Research Institute of Chemical Technology, priority 2013, dated 2017).

One series relates to iNOS. Nature of the series: Inhibition of LPS-induced iNOS induction in Raw264.7 cells (Griess reagent). The note with it: Mus musculus, Raw264.7, LPS 100 ng/ml, 24 hours, read-out: Inhibition rate of iNOS induction (%). The format is cell-based. The procedure: To investigate whether or not the derivative of the present invention could inhibit iNOS inducement, Raw264.7 cells (mouse macrophages) were distributed in a 384-well plate at the density of 3×10^4 cells/well. The cells were treated with LPS at the concentration of 100 ng/ml, followed by culture at 37° C. for 24 hours. The concentration of […] increased in the medium was measured by using Griess reagent. The inhibition rate was calculated by mathematical formula based on the detected signals. The results are shown in Table 2. % inhibition=(mean value of sample−mean value of negative control)/(mean value of positive control −mean value of negative control)×100 [Mathematical Formula 1]
In general terms: Griess reagent forms a coloured azo dye with nitrite.

For the next series, the target named is T1, NFAT5 (Mus musculus, UniProt Q9WV30).
T1 construct: endogenous in cells; host or cells: RAW264.7
T1 sequence (Q9WV30 whole entry): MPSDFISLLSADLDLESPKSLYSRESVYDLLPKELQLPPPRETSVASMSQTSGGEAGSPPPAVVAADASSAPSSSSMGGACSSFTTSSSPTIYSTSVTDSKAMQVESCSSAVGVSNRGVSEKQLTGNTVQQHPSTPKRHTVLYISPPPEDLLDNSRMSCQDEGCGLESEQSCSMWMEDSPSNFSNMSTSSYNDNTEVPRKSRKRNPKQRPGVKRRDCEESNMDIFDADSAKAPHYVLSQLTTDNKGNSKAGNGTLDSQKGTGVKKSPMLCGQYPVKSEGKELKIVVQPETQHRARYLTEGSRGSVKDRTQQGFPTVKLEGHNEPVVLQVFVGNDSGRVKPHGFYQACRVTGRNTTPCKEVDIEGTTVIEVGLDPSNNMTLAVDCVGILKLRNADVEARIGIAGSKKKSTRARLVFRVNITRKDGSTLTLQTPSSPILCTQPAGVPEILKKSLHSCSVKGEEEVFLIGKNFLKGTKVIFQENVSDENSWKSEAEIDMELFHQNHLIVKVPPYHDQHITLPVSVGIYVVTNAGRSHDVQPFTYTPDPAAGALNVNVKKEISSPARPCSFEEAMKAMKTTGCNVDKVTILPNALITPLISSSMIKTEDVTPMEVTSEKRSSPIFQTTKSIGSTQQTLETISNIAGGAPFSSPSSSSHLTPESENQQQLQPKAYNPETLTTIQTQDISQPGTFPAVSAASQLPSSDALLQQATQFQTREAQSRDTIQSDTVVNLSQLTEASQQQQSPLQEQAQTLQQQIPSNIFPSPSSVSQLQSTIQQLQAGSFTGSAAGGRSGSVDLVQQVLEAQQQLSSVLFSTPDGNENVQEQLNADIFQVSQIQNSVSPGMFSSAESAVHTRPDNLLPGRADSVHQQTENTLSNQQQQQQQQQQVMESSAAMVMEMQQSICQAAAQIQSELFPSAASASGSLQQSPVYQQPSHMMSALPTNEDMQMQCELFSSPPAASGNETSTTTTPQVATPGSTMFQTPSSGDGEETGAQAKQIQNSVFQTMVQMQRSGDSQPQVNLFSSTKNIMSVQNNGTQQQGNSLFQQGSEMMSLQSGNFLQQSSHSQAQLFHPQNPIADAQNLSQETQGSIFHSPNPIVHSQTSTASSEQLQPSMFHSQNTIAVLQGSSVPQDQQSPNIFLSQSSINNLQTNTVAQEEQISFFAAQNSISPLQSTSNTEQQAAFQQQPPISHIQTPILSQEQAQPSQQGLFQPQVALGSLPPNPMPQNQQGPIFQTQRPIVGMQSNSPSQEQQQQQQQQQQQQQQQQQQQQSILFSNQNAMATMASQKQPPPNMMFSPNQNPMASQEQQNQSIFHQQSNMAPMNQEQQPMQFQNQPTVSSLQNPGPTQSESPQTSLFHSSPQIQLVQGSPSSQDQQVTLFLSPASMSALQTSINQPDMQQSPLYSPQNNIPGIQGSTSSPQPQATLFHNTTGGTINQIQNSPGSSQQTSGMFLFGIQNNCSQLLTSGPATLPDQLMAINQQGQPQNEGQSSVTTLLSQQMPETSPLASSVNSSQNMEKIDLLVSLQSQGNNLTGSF
The series is described as follows: NFAT5 reporter screening (GFP, HCS) in LPS-treated Raw264.7 cells. As to conditions: for Inhibition rate of NFAT5 transcription (%): Raw264.7 reporter, LPS 1 μg/ml, 48 hours; for inhibiting NFAT5 activity (in words): Table 3 and FIG. 1. In kind it is cell-based. How it is done:
To investigate whether or not the derivative of the present invention could inhibit the transcriptional activity of NFAT5, NFAT5 reporter screening was performed. A plasmid vector was constructed by eliminating CMV promoter sequence from the backbone and inserting NFAT5 binding site sequence ([…]) instead. Raw264.7 cells transfected with the vector were cultured in 10% FBS-PRMI (supplemented with 500 μg/ml G418). The cells were distributed in a 96-well plate at the density of 3×10^3 cells/well, followed by further culture for one more day. The cells were treated with LPS at the concentration of 1 μg/ml for 48 hours. Then, the cells were fixed and the expression level of GFP was measured by HCS fluorescence image (Thermo, ArrayScan^VTI).

The nature of series [1]: Cytotoxicity test (WST-8), VERO. In kind it is cell-based. As to conditions: African green monkey, VERO kidney cells. The procedure: (§1) To investigate the cytotoxicity of the derivative of the present invention, 5 kinds of cell lines (VERO: African green monkey kidney cell line, HFL-1: human embryonic lung cell line, L929: NCTC clone 929, mouse fibroblast cell line, NIH 3T3: mouse embryonic fibroblast cell line, and CHO-K1: Chinese hamster ovary cell line) were distributed in a 96-well plate at the density of 1×10^4 cells/well, which were treated with the compound of the present invention for 24 hours. The water-soluble tetrazolium salt WST-8 was added thereto. The orange colored formazan dye degraded by dehydrogenase in the live cells was read, followed by nonlinear regression to determine 50% growth inhibition concentration.
For orientation: Tetrazolium assays rely on reduction of a dye to a coloured formazan, in cell work by metabolically active cells.

The nature of series [2]: Cytotoxicity test (WST-8), L929. In kind it is cell-based. The note with it: mouse, L929 fibroblast cells (NCTC clone 929); L929, 24 hours. The procedure:
as §1

Series [3] in a line: Cytotoxicity test (WST-8), HFL-1. In kind it is cell-based. As to conditions: human, HFL-1 embryonic lung cells; HFL-1, 24 hours. How it is done:
as §1

Series [4] can be described thus: Cytotoxicity test (WST-8), NIH 3T3. The format is cell-based. As to conditions: mouse, NIH 3T3 embryonic fibroblast cells; NIN3T3, 24 hours. How it is done:
as §1

Series [5] is described as follows: Cytotoxicity test (WST-8), CHO-K1. The format is cell-based. As to conditions: Chinese hamster, CHO-K1 ovary cells; CHO-K1, 24 hours. The procedure:
as §1

Series [6] in a line: Metabolic stability in rat liver microsomes. The format is in vitro ADME. The note with it: rat liver microsome fractions, 30 minutes. The procedure:
(§2) Particularly, each compound was added to rat and human liver microsome fractions, followed by culture for 30 minutes. Each compound was administered via intravenous injection (iv) and oral-administration (po) to rat at the concentration of 5 mg/kg, followed by making pharmacokinetic profiles.
(Liver microsomes are vesicles of endoplasmic reticulum, rich in cytochrome P450 enzymes.)

Series [7] in a line: Metabolic stability in human liver microsomes. The format is in vitro ADME. The note with it: human liver microsome fractions, 30 minutes. How it is done: as §2
A further series has as its system NFATc. Nature of the series: NFAT (NFATc) transcriptional activity, THP1-XBlue-MD2-CD14 cells, SEAP. The format is cell-based. As to conditions: LPS 1 μg/ml, 24 hours, FIG. 2B. The procedure: To evaluate the transcriptional activity of NFAT, THP1-XBlue-MD2-CD14 cells were cultured in 10% FBS-RPMI (supplemented with 200 μg/ml of Zeocin and 250 μg/ml of G418). First, the cells were distributed in a 96-well plate at the density of 2×10^4 cells/well, followed by culture. 1 μg/ml of LPS and the compound of the invention were added thereto, followed by culture for 24 hours. 20 μl of the supernatant was added with 180 μl of secreted embryonic alkaline phosphatase (SEAP) detection medium, followed by culture for 2 hours. Then, OD655 was measured.

For `COc1ccc2c(Cc3ccccn3)c3n(c(=O)c2c1OC)CCc1cc2c(cc1-3)OCO2` [Example 6, 9,10-dimethoxy-13-(pyridine-2-ylmethyl)-5,6-dihydro-[1,3]dioxolo[4,5-g]isoquinolino [3,2-a]isoquinoline-8(6H)-one], in the series on iNOS, the inhibition at 1 µM came to 7.2%. The inhibition at 10 µM with iNOS came to 115%. Also, the “Inhibition rate of NFAT5 transcription (%)” value worked out at 9.9% on NFAT5 (1 μM) and 67.9% on NFAT5 (10 μM). Further, the “inhibiting NFAT5 activity (in words)” value against NFAT5 is recorded as “remarkably excellent in inhibiting NFAT5 activity”. Besides, the 50% growth inhibitory concentration (GI50) at 24 h in series [1], in series [2], in series [3], in series [4] and in [5] was > 100 µM throughout.

With `O=C1CC2(CCCC2)CC(=O)N1CCCCN1CCN(c2ncccn2)CC1` [buspirione, reference compound], the “remaining compound, Rat (%)” value in series [6] is 0.82 ± 0.16%. Further, in [7], the “remaining compound, Human (%)” value came to 3.88 ± 0.24%.

For `COc1ccc2c(Cc3c(F)cccc3F)c3n(c(=O)c2c1OC)CCc1cc2c(cc1-3)OCO2` [Example 3, 13-(2,6-difluorobenzyl)-9,10-dimethoxy-5H-[1,3]dioxolo[4,5-g]isoquinolino[3,2-a]isoquinoline-8(6H)-one], in the series with iNOS, the inhibition at 1 µM turned out to be 74.1%. Further, the inhibition at 10 µM with iNOS worked out at 113%. For the same compound, the results for the “Inhibition rate of NFAT5 transcription (%)” value at NFAT5 (1 μM) and on NFAT5 (10 μM) were 24.6% and 108.8%, respectively. Besides, on NFAT5, the “inhibiting NFAT5 activity (in words)” value is “remarkably excellent in inhibiting NFAT5 activity”. In addition, the “inhibition of NFAT promoter / transcriptional activity (in words)” value in the series on NFATc is on record as “slightly”. Also, the GI50 at 24 h in series [1] was 84.9 µM; in [2], 47.7 µM; in series [3], 32.8 µM; in [4], 10.2 µM; in [5] it was 16.7 µM. Besides, the “remaining compound, Rat (%)” value in [6] is 18.5 ± 5.2%. Besides, the “remaining compound, Human (%)” value in series [7] is recorded as 63.7 ± 2.4%.

By inhibition is commonly meant the relative decrease from the control value, in per cent. In general, GI50 refers to the concentration that inhibits growth by half. Low values mean more potent growth inhibition, high ones less potent growth inhibition.
